One block for each compound: values may come before it.
Experiments:
[1] = test system: K-562 cells; test: Cell cycle analysis (PI, flow cytometry); format: cell-based, human
Protocol: (§1) To determine the effect of rilpivirine on cell-cycle distribution a flow cytometry-based analysis was performed after staining the untreated and treated cells with propidium iodide (PI) solution [22]. Briefly, 6 × 10^4 cells/well were seeded in 3 mL of medium per well in 6-well plates. After overnight incubation at 37 °C in 5% CO2, the cells were incubated with the test compounds for specified time points. The medium-containing cells were then taken out from the wells and transferred to FACS tubes. Cells were then pelleted by centrifugation at 300 g for 5 min. Afterward, cells were fixed by using 70% (v/v) ice-cold ethanol for 15 min and then again pelleted by centrifugation (300 g for 5 min). Finally, the cells were incubated with 200 µL of PI staining solution (50 μg/mL PI, 0.1% sodium citrate, 0.1 mg/mL RNase A, and 0.1% Triton X-100) for 1.5 h at room temperature in the dark. After the incubation period, the cells were analysed using a CytoFLEX flow cytometer (Beckman Coulter Inc., Brea, CA, USA). CytExpert software version 2.1 was used for data analysis and graph preparation.

[2] = test system: K-562 cells; test: Resazurin cell viability assay; format: cell-based, human; details: 72 h
Protocol: Cell viability was determined by a resazurin-based assay as described previously. Briefly, 5 × 10^3 cells/well were seeded into 96-well plates (Corning Inc., Corning, NY, USA) in 180 µL of RPMI 1640 medium and incubated overnight at 37 °C with 5% CO2. Next day, cells were treated with rilpivirine after serially diluted (1:2 dilution for final concentrations ranging from 0.625 µM to 40 µM) or DMSO (0.1%) for specified time periods (24, 48, or 72 h). At the end of the treatment period, 20 µL of resazurin (0.1 mg/mL in PBS) was added per well and incubated for further 4 h. Fluorescence intensities were recorded at 570 nm (excitation)/585 nm (emission) using an EnVision® multilabel plate reader (PerkinElmer, MA, USA). Drug concentrations required for cell viability reduction by 50% (GI50) compared with untreated (DMSO vehicle-treated only) control were determined by a non-linear regression model using GraphPad Prism software version 7.02 (La Jolla, CA, USA).

[3] = test system: KG1 cells; set-up: method as in PMID 18056483; details: cited from earlier work
[4] = test system: SKOV-3 ovarian-cancer cells; set-up: method as in PMID 28390117; details: FACS analysis; cited from earlier work
[5] = test system: HL-60 cells; test: Resazurin cell viability assay; format: cell-based; details: Homo sapiens, HL-60, 72 h; read-out: 72-h GI50
Protocol: Cell viability was determined by a resazurin-based assay as described previously. […] At the end of the treatment period, 20 µL of resazurin (0.1 mg/mL in PBS) was added per well and incubated for further 4 h.

[6] = test system: Aurora A; set-up: method as in PMID 36297298; details: cited from earlier work
[7] = test system: NB4 cells; test: Cell cycle analysis (PI, flow cytometry); format: cell-based, human; details: 10 µM, 24 h
Protocol: as §1

[8] = test system: U-937 cells; test: Cell cycle analysis (PI, flow cytometry); format: cell-based, human; details: 10 µM, 24 h
Protocol: as §1

GI50 [2]: ~38 µM
Structure (SMILES): N[C@@H]1CCCN(c2c(/C=C3\SC(=O)NC3=O)cccc2-c2ccccc2)C1 [AZD1208]
cell-cycle arrest ([1]; 60 μM, 48 h): induced G1 arrest

Structure (SMILES): CC(C)(C)n1nc(-c2ccc(Cl)cc2)c2c(N)ncnc21 [PP2]
cell-cycle arrest [3]: induced G1 cell-cycle arrest

Structure (SMILES): Nc1nc(NC2CC2)c2ncn([C@H]3C=C[C@@H](CO)C3)c2n1 [abacavir]
cell-cycle phase arrest [4]: predominance of a G0/G1 phase arrest

GI50 [5]: 0.07 µM
Structure (SMILES): Nc1ccn([C@@H]2O[C@H](CO)[C@@H](O)[C@@H]2O)c(=O)n1 [cytarabine]

Structure (SMILES): CC(C)CN(C[C@@H](O)[C@H](Cc1ccccc1)NC(=O)O[C@H]1CO[C@H]2OCC[C@H]21)S(=O)(=O)c1ccc(N)cc1 [darunavir]
cell-cycle phase arrest [4]: predominance of a G0/G1 phase arrest

Structure (SMILES): O=C1Nc2ccc(Cl)cc2[C@@](C#CC2CC2)(C(F)(F)F)O1 [efavirenz]
cell-cycle phase arrest [4]: predominance of a G0/G1 phase arrest

Structure (SMILES): Cc1cc(C#N)cc(C)c1Oc1nc(Nc2ccc(C#N)cc2)nc(N)c1Br [etravirine]
cell-cycle phase arrest [4]: predominance of a G0/G1 phase arrest
proportion of cells in the G2/M phase [4]: failed to increase the proportion of cells in the G2/M phase
Aurora A kinase inhibition [6]: inability to inhibit Aurora A kinase
G2/M phase arrest ([1]; 10 µM, 24 h): failed to induce a G2/M phase arrest
G2/M phase arrest [7]: failed to induce a G2/M phase arrest
G2/M phase arrest [8]: failed to induce a G2/M phase arrest

Structure (SMILES): C[C@H](Cn1cnc2c(N)ncnc21)OCP(=O)(O)O [tenofovir]
cell-cycle phase arrest [4]: predominance of a G0/G1 phase arrest
